Laboratory results as given in ChEMBL document CHEMBL1129615, “Synthesis and quantitative structure-activity relationship of 17 beta-(hydrazonomethyl)-5 beta-androstane-3 beta,14 beta-diol derivatives that bind to Na+,K(+)-ATPase receptor” (J Med Chem, 1996).

Legend:
[1] = Acid dissociation constant was determined; format: ADME
[2] = molecular target: Sodium/potassium-transporting ATPase; test: Displacement of [3H]ouabain from dog kidney Na+/K+ ATPase; format: protein-complex assay, Canis lupus familiaris

In the case of `C[C@]12CC[C@H](O)C[C@H]1CC[C@@H]1[C@@H]2CC[C@]2(C)[C@@H](/C=N/N=C(N)N)CC[C@]12O.Cl`, the pKa [1] is reported as 9.35 and the “-Log IC50” value [2] is reported as 7.

In the case of `CN1CCN=C1N/N=C/[C@H]1CC[C@]2(O)[C@@H]3CC[C@@H]4C[C@@H](O)CC[C@]4(C)[C@H]3CC[C@]12C`, the pKa [1] is reported as 8.05 and the “-Log IC50” value [2] is reported as 6.

With `C/C(=N\N=C(N)N)[C@H]1CC[C@]2(O)[C@@H]3CC[C@@H]4C[C@@H](O)CC[C@]4(C)[C@H]3CC[C@]12C` the pKa [1] was 9.49 and the “-Log IC50” value [2] was 6.7.

For `C[C@]12CC[C@H](O)C[C@H]1CC[C@@H]1[C@@H]2CC[C@]2(C)[C@@H](/C=N/NC3=NC(=O)CN3)CC[C@]12O`, the pKa [1] was 3.58 and the “-Log IC50” value [2] was 4.7.

With `C[C@]12CC[C@H](O)C[C@H]1CC[C@@H]1[C@@H]2CC[C@]2(C)[C@@H](/C=N/NC(N)=O)CC[C@]12O` the pKa [1] was 1.78 and the “-Log IC50” value [2] was 5.1.

With `C[C@]12CC[C@H](O)C[C@H]1CC[C@@H]1[C@@H]2CC[C@]2(C)[C@@H](/C=N/N=C(\N)S)CC[C@]12O` the pKa [1] was 0.86 and the “-Log IC50” value [2] was 4.7.

For `C[C@]12CC[C@H](O)C[C@H]1CC[C@@H]1[C@@H]2CC[C@]2(C)[C@@H](/C=N/NC3=NCCN3)CC[C@]12O`, the pKa [1] was 8.42 and the “-Log IC50” value [2] was 6.7.

For `C[C@]12CC[C@H](O)C[C@H]1CC[C@@H]1[C@@H]2CC[C@]2(C)[C@@H](/C=N/NC3=NCCCN3)CC[C@]12O`, the pKa [1] was 10.4 and the “-Log IC50” value [2] was 6.6.

For `C[C@]12CC[C@H](O)C[C@H]1CC[C@@H]1[C@@H]2CC[C@]2(C)[C@@H](/C=N/Nc3ccccn3)CC[C@]12O`, the pKa [1] was 6.34 and the “-Log IC50” value [2] was 5.7.

For `C[C@]12CC[C@H](O)C[C@H]1CC[C@@H]1[C@@H]2CC[C@]2(C)[C@@H](/C=N/Nc3ncccn3)CC[C@]12O`, the pKa [1] was 3.44 and the “-Log IC50” value [2] was 4.6.

In the case of `CSC(=N)N/N=C/[C@H]1CC[C@]2(O)[C@@H]3CC[C@@H]4C[C@@H](O)CC[C@]4(C)[C@H]3CC[C@]12C`, the pKa [1] is reported as 5.76 and the “-Log IC50” value [2] is reported as 5.7.

For `C[C@]12CC[C@H](O)C[C@H]1CC[C@@H]1[C@@H]2CC[C@]2(C)[C@@H](/C=N/N=C(\N)Nc3ccccc3)CC[C@]12O`, the pKa [1] was 8.62 and the “-Log IC50” value [2] was 5.2.

In the case of `C/N=C(\C[N+](=O)[O-])N/N=C/[C@H]1CC[C@]2(O)[C@@H]3CC[C@@H]4C[C@@H](O)CC[C@]4(C)[C@H]3CC[C@]12C`, the pKa [1] is reported as 2.37 and the “-Log IC50” value [2] is reported as 4.5.
